Experimental data from ChEMBL document CHEMBL1201862, “PubChem BioAssay data set” (2004).
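Results reflect a 48-hour exposure of cells in 96-well plates to compound at five concentrations. At the GI50, growth is halved.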 Activity calls are given as the source filed them. No stated cut-off is given here; in the data, active = GI50 up to about 1.1 µM and inactive = higher.

Tests used:
Test in all cases: NCI anticancer screen, dose series, 48 h
IGROV-1 = test system: IGROV-1
UACC-62 = test system: UACC-62
NCI-H460 = test system: NCI-H460
K562 = test system: K562
OVCAR-3 = test system: OVCAR-3
UO-31 = test system: UO-31
HOP-62 = test system: HOP-62
HT-29 = test system: HT-29
BT-549 = test system: BT-549
SK-MEL-28 = test system: SK-MEL-28
SK-MEL-5 = test system: SK-MEL-5
KM12 = test system: KM12
MDA-MB-435 = test system: MDA-MB-435
SK-OV-3 = test system: SK-OV-3
U-251 = test system: U-251
OVCAR-5 = test system: OVCAR-5
SK-MEL-2 = test system: SK-MEL-2
NCI-H522 = test system: NCI-H522
T47D = test system: T47D
HOP-92 = test system: HOP-92

Compound	GI50 (IGROV-1)	GI50 (UACC-62)	GI50 (NCI-H460)	GI50 (K562)	GI50 (OVCAR-3)	GI50 (UO-31)	GI50 (HOP-62)	GI50 (HT-29)	GI50 (BT-549)	GI50 (SK-MEL-28)	GI50 (SK-MEL-5)	GI50 (KM12)	GI50 (MDA-MB-435)	GI50 (SK-OV-3)	GI50 (U-251)	GI50 (OVCAR-5)	GI50 (SK-MEL-2)	GI50 (NCI-H522)	GI50 (T47D)	GI50 (HOP-92)
COc1cc(OC)nc(Nc2c(C#N)c3nc4ccccc4n3c3ccccc23)n1	21.8 µM (inactive)	37.1 µM (inactive)	43 µM (inactive)	> 100 µM (inactive)	31.3 µM (inactive)	53.1 µM (inactive)	16.6 µM (inactive)	> 100 µM (inactive)	15.8 µM (inactive)	> 100 µM (inactive)	> 100 µM (inactive)	45.9 µM (inactive)	> 100 µM (inactive)	51.6 µM (inactive)	31.3 µM (inactive)	> 100 µM (inactive)	25.8 µM (inactive)	19.2 µM (inactive)	> 100 µM (inactive)	–
CN(C)c1nc(Cl)c2c(-c3ccccc3)c(-c3ccccc3)oc2n1	80.7 µM (inactive)	95.5 µM (inactive)	–	42.1 µM (inactive)	–	> 100 µM (inactive)	–	58.7 µM (inactive)	29.7 µM (inactive)	> 100 µM (inactive)	41.7 µM (inactive)	> 100 µM (inactive)	> 100 µM (inactive)	58.3 µM (inactive)	> 100 µM (inactive)	> 100 µM (inactive)	–	17.5 µM (inactive)	83 µM (inactive)	81.5 µM (inactive)
COP(=O)(CP(=O)(OC)OCCC(C)CCC=C(C)C)OC (stereo not given)	> 100 µM (inactive)	–	> 100 µM (inactive)	> 100 µM (inactive)	> 100 µM (inactive)	> 100 µM (inactive)	69.7 µM (inactive)	–	> 100 µM (inactive)	> 100 µM (inactive)	> 100 µM (inactive)	> 100 µM (inactive)	> 100 µM (inactive)	> 100 µM (inactive)	26.7 µM (inactive)	> 100 µM (inactive)	> 100 µM (inactive)	> 100 µM (inactive)	> 100 µM (inactive)	–
CCCCS(=O)(=O)CCC(N)C(=O)O (stereo not given)	> 100 µM (inactive)	> 100 µM (inactive)	> 100 µM (inactive)	> 100 µM (inactive)	> 100 µM (inactive)	> 100 µM (inactive)	> 100 µM (inactive)	> 100 µM (inactive)	> 100 µM (inactive)	> 100 µM (inactive)	> 100 µM (inactive)	> 100 µM (inactive)	–	> 100 µM (inactive)	> 100 µM (inactive)	> 100 µM (inactive)	> 100 µM (inactive)	> 100 µM (inactive)	> 100 µM (inactive)	–
CC1=C(C)C(=O)C(C2=CC(=O)c3ccccc3C2=O)=C(C2=CC(=O)c3ccccc3C2=O)C1=O	7.31 µM (inactive)	7.19 µM (inactive)	10.1 µM (inactive)	–	–	2.84 µM (inactive)	12.4 µM (inactive)	0.684 µM (active)	18.7 µM (inactive)	7.62 µM (inactive)	1.4 µM (inactive)	10.4 µM (inactive)	0.352 µM (active)	20.2 µM (inactive)	6.43 µM (inactive)	24.3 µM (inactive)	5.9 µM (inactive)	2.85 µM (inactive)	6.95 µM (inactive)	–
Cc1nn(-c2cc(Cl)ccc2[N+](=O)[O-])c(C)c1Cl	> 100 µM (inactive)	> 100 µM (inactive)	70.5 µM (inactive)	20.3 µM (inactive)	> 100 µM (inactive)	20.8 µM (inactive)	> 100 µM (inactive)	> 100 µM (inactive)	42.5 µM (inactive)	> 100 µM (inactive)	81.7 µM (inactive)	> 100 µM (inactive)	> 100 µM (inactive)	> 100 µM (inactive)	> 100 µM (inactive)	> 100 µM (inactive)	> 100 µM (inactive)	> 100 µM (inactive)	38.2 µM (inactive)	–
COc1ccc(-n2c(C)nc3ccc(/N=C/c4ccccc4)cc3c2=O)cc1	> 100 µM (inactive)	> 100 µM (inactive)	> 100 µM (inactive)	> 100 µM (inactive)	> 100 µM (inactive)	> 100 µM (inactive)	> 100 µM (inactive)	> 100 µM (inactive)	> 100 µM (inactive)	> 100 µM (inactive)	> 100 µM (inactive)	> 100 µM (inactive)	> 100 µM (inactive)	–	> 100 µM (inactive)	> 100 µM (inactive)	–	> 100 µM (inactive)	> 100 µM (inactive)	–
S=C(NN=C1NCCCCN1)Nc1ccccc1	43.4 µM (inactive)	> 100 µM (inactive)	37.2 µM (inactive)	31.6 µM (inactive)	40.4 µM (inactive)	34 µM (inactive)	68.9 µM (inactive)	23 µM (inactive)	64.9 µM (inactive)	35.5 µM (inactive)	48.8 µM (inactive)	37.2 µM (inactive)	39.7 µM (inactive)	79.8 µM (inactive)	36.3 µM (inactive)	> 100 µM (inactive)	–	21.2 µM (inactive)	> 100 µM (inactive)	–
CCC(C)C(NC(=O)C(CCCC[N+](=N)N)NC(=O)C(CCCC[N+](=N)N)NC(=O)c1ccc(OC)cc1)C(=O)NC(CCCC[N+](=N)N)C(=O)N1CCCC1C(=O)NC(CCCCN)C(=O)NC(CC(C)C)C(N)=O (stereo not given)	–	> 100 µM (inactive)	> 100 µM (inactive)	> 100 µM (inactive)	> 100 µM (inactive)	> 100 µM (inactive)	> 100 µM (inactive)	> 100 µM (inactive)	> 100 µM (inactive)	> 100 µM (inactive)	> 100 µM (inactive)	> 100 µM (inactive)	> 100 µM (inactive)	> 100 µM (inactive)	> 100 µM (inactive)	> 100 µM (inactive)	–	> 100 µM (inactive)	> 100 µM (inactive)	–
O=C(NNC(=S)NC1CCCCC1)C12CC3CC(CC(C3)C1)C2	> 100 µM (inactive)	> 100 µM (inactive)	> 100 µM (inactive)	> 100 µM (inactive)	> 100 µM (inactive)	> 100 µM (inactive)	> 100 µM (inactive)	> 100 µM (inactive)	> 100 µM (inactive)	> 100 µM (inactive)	> 100 µM (inactive)	> 100 µM (inactive)	> 100 µM (inactive)	> 100 µM (inactive)	> 100 µM (inactive)	> 100 µM (inactive)	> 100 µM (inactive)	> 100 µM (inactive)	> 100 µM (inactive)	–
Clc1cc2ncn(C3CCCCO3)c2cc1Cl (stereo not given)	20.1 µM (inactive)	53.5 µM (inactive)	–	46.2 µM (inactive)	41 µM (inactive)	16.1 µM (inactive)	69.8 µM (inactive)	35.9 µM (inactive)	22.2 µM (inactive)	39.4 µM (inactive)	38.4 µM (inactive)	14.2 µM (inactive)	75.9 µM (inactive)	> 100 µM (inactive)	39.5 µM (inactive)	> 100 µM (inactive)	> 100 µM (inactive)	4.7 µM (inactive)	44.6 µM (inactive)	–
